According to patent US20200317642A1, “AMINE-SUBSTITUTED HETEROCYCLIC COMPOUNDS AS EHMT2 INHIBITORS AND DERIVATIVES THEREOF” (Epizyme, Inc., priority 2017, published 2020):
Where two headings read alike, the source gives them in different places.

Biological target: T1, EHMT1 (Homo sapiens, UniProt Q9H9B1)
T1 sequence (Q9H9B1 1-1298): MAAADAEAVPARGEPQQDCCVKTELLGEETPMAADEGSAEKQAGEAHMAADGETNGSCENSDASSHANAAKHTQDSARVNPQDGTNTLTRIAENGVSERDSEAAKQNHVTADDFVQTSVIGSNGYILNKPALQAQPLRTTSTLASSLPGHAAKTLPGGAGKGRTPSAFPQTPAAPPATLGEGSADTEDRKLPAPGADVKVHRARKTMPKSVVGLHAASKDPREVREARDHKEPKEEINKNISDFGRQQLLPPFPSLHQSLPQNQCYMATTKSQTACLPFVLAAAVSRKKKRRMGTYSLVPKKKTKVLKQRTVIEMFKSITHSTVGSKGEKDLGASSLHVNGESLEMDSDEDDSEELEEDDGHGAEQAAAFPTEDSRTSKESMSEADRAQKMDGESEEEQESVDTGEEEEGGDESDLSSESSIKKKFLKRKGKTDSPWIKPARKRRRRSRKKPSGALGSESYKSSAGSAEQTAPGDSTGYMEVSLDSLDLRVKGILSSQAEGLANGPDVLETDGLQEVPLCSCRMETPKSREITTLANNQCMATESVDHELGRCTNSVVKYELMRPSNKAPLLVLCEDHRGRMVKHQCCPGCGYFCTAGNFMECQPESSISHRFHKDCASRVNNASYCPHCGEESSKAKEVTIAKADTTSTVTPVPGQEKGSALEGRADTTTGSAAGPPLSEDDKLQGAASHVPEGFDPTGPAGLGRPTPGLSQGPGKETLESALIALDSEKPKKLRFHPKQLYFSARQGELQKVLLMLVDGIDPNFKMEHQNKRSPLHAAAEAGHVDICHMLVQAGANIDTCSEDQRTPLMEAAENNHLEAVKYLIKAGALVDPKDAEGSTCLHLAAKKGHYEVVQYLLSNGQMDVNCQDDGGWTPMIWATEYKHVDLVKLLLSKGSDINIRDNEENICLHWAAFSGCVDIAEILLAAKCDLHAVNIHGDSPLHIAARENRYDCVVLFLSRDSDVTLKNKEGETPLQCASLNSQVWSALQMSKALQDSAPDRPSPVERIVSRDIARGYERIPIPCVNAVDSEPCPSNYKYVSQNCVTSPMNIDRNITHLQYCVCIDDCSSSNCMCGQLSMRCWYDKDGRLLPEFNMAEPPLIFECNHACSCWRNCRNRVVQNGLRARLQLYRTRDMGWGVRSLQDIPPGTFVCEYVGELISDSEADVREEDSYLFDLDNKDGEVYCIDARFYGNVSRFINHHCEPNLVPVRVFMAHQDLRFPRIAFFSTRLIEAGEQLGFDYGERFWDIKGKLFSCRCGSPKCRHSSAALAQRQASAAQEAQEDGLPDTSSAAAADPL
Assay: EHMT1 PEP enzyme assay
Format: biochemical

[1] = Table 3, read-out: EHMT1 PEP (IC50 μM)
[2] = Table 3A, read-out: EHMT1 (IC50 μM)

Row | SMILES | IC50 [1] [µM] | IC50 [2] [µM]
1 | CNc1cc(C)nc(Nc2ccc(Br)c(CNCCN3CCCC3)c2)n1 [Compound 1, 2-N-[4-bromo-3-([[2-(pyrrolidin-1-yl)ethyl]amino]methyl)phenyl]-4-N,6-dimethylpyrimidine-2,4-diamine] | < 0.1 | –
2 | CNc1cc(C)nc(Nc2ccc(Cl)c(C(=O)NCC3COC3)c2)n1 [Compound 2, 2-chloro-5-[[4-methyl-6-(methylamino)pyrimidin-2-yl]amino]-N-(oxetan-3-ylmethyl)benzamide] | 1 to 10 | –
3 | CNc1cc(C)nc(Nc2ccc(Cl)c(C(=O)NCC3CCC3)c2)n1 [Compound 3] | 0.1 to 1 | –
4 | CNc1cc(C)nc(Nc2ccc(Cl)c(C(=O)NCC3CC3)c2)n1 [Compound 4] | 1 to 10 | –
5 | CNc1cc(C)nc(Nc2ccc(Cl)c(C(=O)Nc3cccnn3)c2)n1 [Compound 5] | 1 to 10 | –
6 | CNc1cc(C)nc(Nc2ccc(Cl)c(C(=O)Nc3ncco3)c2)n1 [Compound 6] | 1 to 10 | –
7 | CNc1cc(C)nc(Nc2ccc(Cl)c(C(=O)NCCN3CCCC3)c2)n1 [Compound 7] | < 0.1 | –
8 | CNc1cc(C)nc(Nc2ccc(Cl)c(C(=O)NC3CCOCC3)c2)n1 [Compound 8] | > 10 | –
9 | CCCCNC(=O)c1cc(Nc2nc(C)cc(NC)n2)ccc1Cl [Compound 9] | 0.1 to 1 | –
10 | CNc1cc(C)nc(Nc2ccc(Cl)c(C(=O)Nc3ccccc3)c2)n1 [Compound 10] | 1 to 10 | –
11 | CNc1cc(C)nc(Nc2ccc(C3CC3)c(CNCCN3CCCC3)c2)n1 [Compound 11, 2-N-[4-cyclopropyl-3-([[2-(pyrrolidin-1-yl)ethyl]amino]methyl)phenyl]-4-N,6-dimethylpyrimidine-2,4-diamine] | < 0.1 | –
12 | CNc1cc(C)nc(Nc2ccc(Cl)c(C(=O)Nc3cscn3)c2)n1 [Compound 13] | 0.1 to 1 | –
13 | CNc1cc(C)nc(Nc2ccc(Cl)c(C(=O)Nc3cocn3)c2)n1 [Compound 14, 2-chloro-5-[[4-methyl-6-(methylamino)pyrimidin-2-yl]amino]-N-(1,3-oxazol-4-yl)benzamide] | 1 to 10 | –
14 | CNc1cc(C)nc(Nc2ccc(Cl)c(C(=O)Nc3cn(C)cn3)c2)n1 [Compound 15] | > 10 | –
15 | CNc1cc(C)nc(Nc2ccc(OC)c(C#CCN3CCNCC3)c2)n1 [Compound 28, 2-N-[4-methoxy-3-[3-(piperazin-1-yl)prop-1-yn-1-yl]phenyl]-4-N,6-dimethylpyrimidine-2,4-diamine] | < 0.1 | –
16 | CNc1cc(C)nc(Nc2ccc(C)c(C(=O)Nc3cc(C#N)ccn3)c2)n1 [Compound 30] | 1 to 10 | –
17 | CNc1cc(C)nc(Nc2ccc(OC)c(CNCCN3CCC[C@H]3C)c2)n1 [Compound 31] | < 0.1 | –
18 | CNc1cc(C)nc(Nc2ccc(OC)c(CNCCN3CCC[C@@H]3C)c2)n1 [Compound 32] | 0.1 to 1 | –
19 | CNc1cc(C)nc(Nc2ccc(C)c(C(=O)Nc3ncn(C)n3)c2)n1 [Compound 33] | 1 to 10 | –
20 | CNc1cc(C)nc(Nc2ccc(OC)c(CNCCN3CC(C)C3)c2)n1 [Compound 35] | > 10 | –
21 | CNc1cc(C)nc(Nc2ccc(C)c(C(=O)Nc3cn(C4CC4)cn3)c2)n1 [Compound 36] | > 10 | –
22 | CNc1cc(C)nc(Nc2ccc(C)c(C(=O)Nc3c[nH]cn3)c2)n1 [Compound 37] | 1 to 10 | –
23 | CNc1cc(C)nc(Nc2ccc(OC)c(CNCCN3CC[C@@H](C)C3)c2)n1 [Compound 38] | 0.1 to 1 | –
24 | CNc1cc(C)nc(Nc2ccc(OC)c(CNCCN3CC[C@H](C)C3)c2)n1 [Compound 39] | 0.1 to 1 | –
25 | CNc1cc(C)nc(Nc2ccc(OC)c(OC[C@H](O)CN3CCCCC3)c2)n1 [Compound 40] | > 10 | –

Row | SMILES | IC50 [1] [µM] | IC50 [2] [µM]
26 | CNc1cc(C)nc(Nc2ccc(OC)c(OC[C@H](O)CN3CC4(CC4)C3)c2)n1 [Compound 41] | > 10 | –
27 | CNc1cc(C)nc(Nc2ccc(OC)c(CNC[C@@H](C)N3CCCC3)c2)n1 [Compound 42] | 0.1 to 1 | –
28 | CNc1cc(C)nc(Nc2ccc(OC)c(CNC[C@H](C)N3CCCC3)c2)n1 [Compound 43] | > 10 | –
29 | CNc1cc(C)nc(Nc2ccc(OC)c(C#CC[N+](C)(C)CCN)c2)n1 [Compound 45] | > 10 | –
30 | CNc1cc(C)nc(Nc2ccc(OC)c(CN[C@@H](C)CN3CCCC3)c2)n1 [Compound 47] | 0.1 to 1 | –
31 | CNc1cc(C)nc(Nc2ccc(OC)c(CN[C@H](C)CN3CCCC3)c2)n1 [Compound 48] | 0.1 to 1 | –
32 | CNc1cc(C)nc(Nc2ccc(OC)c(C#CCNCCN(C)C)c2)n1 [Compound 49] | 0.1 to 1 | –
33 | CNCc1cn(-c2cc(Nc3nc(C)cc(NC)n3)ccc2Cl)nn1 [Compound A1] | – | < 0.01
34 | CNC1=Nc2cc(-n3cc([C@H]4CCCN4)nn3)c(Cl)cc2C12CCC2 [Compound A2R, (R)-5′-chloro-N-methyl-6′-(4-(pyrrolidin-2-yl)-1H-1,2,3-triazol-1-yl)spiro[cyclobutane-1,3′-indol]-2′-amine] | – | < 0.01
35 | CNC1=Nc2cc(-n3cc([C@@H]4CCCN4)nn3)c(Cl)cc2C12CCC2 [Compound A2S, (S)-5′-chloro-N-methyl-6′-(4-(pyrrolidin-2-yl)-1H-1,2,3-triazol-1-yl)spiro[cyclobutane-1,3′-indol]-2′-amine] | – | 0.01 to 0.1
36 | CNC1=Nc2cc(-n3cc(C4CCCN4)nn3)c(Cl)cc2C12CCC2 (centres unmarked) [Compound A2] | – | < 0.01
37 | CNCc1cn(-c2c(OC)ccc(Nc3nc(C)cc(NC)n3)c2F)nn1 [Compound A3, N2-(2-fluoro-4-methoxy-3-[4-[(methylamino)methyl]-1H-1,2,3-triazol-1-yl]phenyl)-N4,6-dimethylpyrimidine-2,4-diamine] | – | < 0.01
38 | CNc1cc(C)nc(Nc2ccc(OC)c(-n3cc([C@H]4CCCN4)nn3)c2F)n1 [Compound A4R] | – | < 0.01
39 | CNc1cc(C)nc(Nc2ccc(OC)c(-n3cc([C@@H]4CCCN4)nn3)c2F)n1 [Compound A4S] | – | 0.01 to 0.1
40 | CNc1cc(C)nc(Nc2ccc(OC)c(-n3cc(C4CCCN4)nn3)c2F)n1 (centres unmarked) [Compound A4] | – | < 0.01
41 | CNc1cc(C)nc(Nc2ccc(OC)c(-n3cc(CNC(C)C)cn3)c2F)n1 [Compound A5] | – | 0.1 to 1
42 | CNc1cc(C)nc(Nc2ccc(Cl)c(-n3cc(CN)cn3)c2Cl)n1 [Compound A6] | – | < 0.01
43 | CCNCc1cnn(-c2c(OC)ccc(Nc3nc(C)cc(NC)n3)c2F)c1 [Compound A7] | – | 0.01 to 0.1
44 | CNCc1cnn(-c2c(OC)ccc(Nc3nc(NC)cc(C(C)C)n3)c2F)c1 [Compound A8, N^2-(2-fluoro-4-methoxy-3-[4-[(methylamino)methyl]-1H-pyrazol-1-yl]phenyl)-N^4-methyl-6-(propan-2-yl)pyrimidine-2,4-diamine] | – | < 0.01
45 | CNc1cc(C)nc(Nc2ccc(OC)c(-n3ncc4c3CCNC4)c2F)n1 [Compound A9, N2-(2-fluoro-4-methoxy-3-(4,5,6,7-tetrahydro-1H-pyrazolo[4,3-c]142yridine-1-yl)phenyl)-N4,6-dimethylpyrimidine-2,4-diamine] | – | 0.1 to 1
46 | CNC1=Nc2cc(-c3cc4n(n3)CCNC4)c(Cl)cc2C12CCC2 [Compound A10, 5′-chloro-N-methyl-6′-(4,5,6,7-tetrahydropyrazolo[1,5-a]pyrazin-2-yl)spiro[cyclobutane-1,3′-indol]-2′-amine] | – | 0.01 to 0.1
47 | CNCc1cn(-c2cc3c(cc2Cl)C2(CCC2)C(NC)=N3)nn1 [Compound A11, 5′-chloro-N-methyl-6′-(4-((methylamino)methyl)-1H-1,2,3-triazol-1-yl)spiro[cyclobutane-1,3′-indol]-2′-amine] | – | < 0.01
48 | CNC1=Nc2cc(-c3cc4n(n3)CCN(C)C4)c(Cl)cc2C12CCC2 [Compound A12, 5′-chloro-N-methyl-6′-(5-methyl-4,5,6,7-tetrahydropyrazolo[1,5-a]145yrazine-2-yl)spiro[cyclobutane-1,3′-indol]-2′-amine] | – | 0.1 to 1
49 | CNCc1cn(-c2c(Cl)ccc(Nc3nc(C)cc(NC)n3)c2Cl)nn1 [Compound A13, N2-(2,4-dichloro-3-(4-((methylamino)methyl)-1H-1,2,3-triazol-1-yl)phenyl)-N4,6-dimethylpyrimidine-2,4-diamine] | – | < 0.01
50 | CNCc1cc(-c2c(OC)ccc(Nc3nc(C)cc(NC)n3)c2F)no1 [Compound A14, N2-(2-fluoro-4-methoxy-3-[5-[(methylamino)methyl]-1,2-oxazol-3-yl]phenyl)-N4,6-dimethylpyrimidine-2,4-diamine] | – | < 0.01
